Data published in ChEMBL document CHEMBL1140403, “Carbonic anhydrase inhibitors: inhibition of cytosolic/tumor-associated carbonic anhydrase isozymes I, II, and IX with benzo[b]thiophene 1,1-dioxide sulfonamides” (Bioorg Med Chem Lett, 2005).

Tests used:
Carbonic anhydrase 9 = Carbonic anhydrase 9 (Homo sapiens, UniProt Q16790)
Description: Inhibitory activity against catalytic domain of human cloned Carbonic anhydrase IX by the CO2 hydration method

Carbonic anhydrase 1 = Carbonic anhydrase 1 (Homo sapiens, UniProt P00915)
Description: Inhibitory activity against human cloned Carbonic anhydrase I by the CO2 hydration method

Carbonic anhydrase 2 = Carbonic anhydrase 2 (Homo sapiens, UniProt P00918)
Description: Inhibitory activity against human cloned Carbonic anhydrase II by the CO2 hydration method

Sequence of Carbonic anhydrase 1 (P00915 whole entry): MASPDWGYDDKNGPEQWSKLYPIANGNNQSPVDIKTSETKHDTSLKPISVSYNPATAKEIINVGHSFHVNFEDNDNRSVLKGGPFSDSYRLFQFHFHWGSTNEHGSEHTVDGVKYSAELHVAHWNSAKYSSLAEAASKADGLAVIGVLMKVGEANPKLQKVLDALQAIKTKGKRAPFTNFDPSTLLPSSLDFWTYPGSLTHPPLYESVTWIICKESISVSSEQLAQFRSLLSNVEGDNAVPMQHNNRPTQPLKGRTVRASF

Compound: NS(=O)(=O)c1ccc2c(c1)S(=O)(=O)CC2
- Ki (Carbonic anhydrase 9): 10 nM
- Ki (Carbonic anhydrase 1): 72 nM
- Ki (Carbonic anhydrase 2): 8.8 nM

Compound: CC1=CS(=O)(=O)c2cc(S(N)(=O)=O)ccc21
- Ki (Carbonic anhydrase 9): 13 nM
- Ki (Carbonic anhydrase 1): 85 nM
- Ki (Carbonic anhydrase 2): 8.3 nM

Compound: CCNS(=O)(=O)c1ccc2c(c1)S(=O)(=O)C=C2
- Ki (Carbonic anhydrase 9): 362 nM
- Ki (Carbonic anhydrase 1): 530 nM
- Ki (Carbonic anhydrase 2): 436 nM

Compound: CCCCOC1CS(=O)(=O)c2cc(S(N)(=O)=O)ccc21 (stereo not given)
- Ki (Carbonic anhydrase 9): 3.1 nM
- Ki (Carbonic anhydrase 1): 104 nM
- Ki (Carbonic anhydrase 2): 6.3 nM

Compound: NS(=O)(=O)c1ccc2c(c1)C=CS2(=O)=O
- Ki (Carbonic anhydrase 9): 13 nM
- Ki (Carbonic anhydrase 1): 75 nM
- Ki (Carbonic anhydrase 2): 7.4 nM

Compound: O=S1(=O)C=Cc2ccc(S(=O)(=O)NCc3ccccc3)cc21
- Ki (Carbonic anhydrase 9): > 1000 nM
- Ki (Carbonic anhydrase 1): > 1000 nM
- Ki (Carbonic anhydrase 2): > 1000 nM

Compound: O=S1(=O)C=Cc2ccc(S(=O)(=O)NCC3CC3)cc21
- Ki (Carbonic anhydrase 9): 76 nM
- Ki (Carbonic anhydrase 1): 493 nM
- Ki (Carbonic anhydrase 2): 475 nM

Compound: NS(=O)(=O)c1ccc2c(c1)S(=O)(=O)CC2OCc1ccccc1 (stereo not given)
- Ki (Carbonic anhydrase 9): 2.8 nM
- Ki (Carbonic anhydrase 1): 138 nM
- Ki (Carbonic anhydrase 2): 7.9 nM

Compound: NS(=O)(=O)c1ccc2c(c1)S(=O)(=O)C=C2
- Ki (Carbonic anhydrase 9): 15 nM
- Ki (Carbonic anhydrase 1): 63 nM
- Ki (Carbonic anhydrase 2): 7.5 nM

Compound: COc1cccc(NS(=O)(=O)c2ccc3c(c2)C=CS3(=O)=O)c1
- Ki (Carbonic anhydrase 9): > 1000 nM
- Ki (Carbonic anhydrase 1): > 1000 nM
- Ki (Carbonic anhydrase 2): > 1000 nM
